# Reference: article PMC11661381, “Covalent-fragment screening identifies selective inhibitors of multiple Staphylococcus aureus serine hydrolases important for growth and biofilm formation” (Research Square, 2024)
# What was measured:
# Pseudomonas aeruginosa = assay: Bacterial growth inhibition assay, P. aeruginosa; format: cell-based
# Procedure: (§1) Bacteria were streaked from glycerol stocks onto agar plates and grown overnight at 37°C. A single colony was inoculated in either Tryptic Soy Broth (TSB; Sigma-Aldrich, St. Louis, MO; used for most species) or Bacto Brain Heart Infusion (BHI; Becton, Dickinson, and Company, Franklin Lakes, NJ; used for L. monocytogenes and S. pyogenes) and grown at 37°C shaking until mid-exponential phase (OD600 = 0.5), then diluted 1:10 in cation-adjusted Mueller Hinton Broth (MHB2, Millipore Sigma, Bedford, MA; used for most species) or BHI (for L. monocytogenes and S. pyogenes). 15 μl of this dilution was added to 135 μl of MHB2 or BHI in a flat-bottom clear 96-well plate for a starting inoculum of ~ 5 × 10^5 CFU/ml.
# For bacterial growth inhibition assay, wild-type S. aureus and transposon mutants (fphB::Tn, fphE::Tn and fphH::Tn) were grown with compounds at final concentrations ranging from 1–100 μM and compared to growth in media with an equivalent percentage of DMSO. […] All growth curves were repeated at least twice and analyzed in GraphPad Prism 10.0 software. […] The cultures were incubated overnight at 37°C, 5% CO2 before their optical density was read. The EC50 of the antibiotics against the bacteria in the presence or absence of N34 were determined by fitting the normalized data into a four-parameter logistic model in GraphPad Prism 10.0 software.
# Escherichia coli = assay: Bacterial growth inhibition assay, E. coli; format: cell-based
# recombinant FphE (rFphE) = target: T1, recombinant FphE (rFphE) (Staphylococcus aureus, UniProt Q2FDS6); assay: biochemical; conditions: IC50 rFphE, value in nM
# T1 construct: otherwise full-length FphE (Uniprot ID Q2FDS6) and FphH (A0A0H2XJL0) proteins; His6 (3C-cleavable, pETNKI-his-3C-LIC vector) (N); made in house; E. coli is inferred from the pET28a-type vector, IPTG induction and LB/kanamycin
# T1 sequence (Q2FDS6 1-276): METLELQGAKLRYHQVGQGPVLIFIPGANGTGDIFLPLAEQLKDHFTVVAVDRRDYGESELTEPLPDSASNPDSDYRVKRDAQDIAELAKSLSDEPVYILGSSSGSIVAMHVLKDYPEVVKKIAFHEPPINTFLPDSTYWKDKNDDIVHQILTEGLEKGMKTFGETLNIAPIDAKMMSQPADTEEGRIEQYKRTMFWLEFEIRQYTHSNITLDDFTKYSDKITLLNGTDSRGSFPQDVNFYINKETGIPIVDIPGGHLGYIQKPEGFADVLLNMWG
# Procedure: Fluorogenic substrate assays were performed as previously described[9],[11],[12]. […] Turnover rates in the linear phase of the reaction (10–20 min) were calculated using GraphPad prism 10.0 software as RFU/min. Rates were normalized by subtracting background hydrolysis rates measured for each substrate in reaction buffer in the absence of protein.
# For the screening, 8 μL of enzyme solution was pipetted into the assay plates containing 50 nL compound and allowed to incubate for one hour at room temperature. […] For four-point dose response plates, 2.5, 10, 25, 50 nL droplets were transferred to get […], 10, 25, 50 μM compound concentrations in the 384 well plates again using an Echo acoustic liquid handler as above. […] Calculations were done with GraphPad Prism 10.0 software. […] IC50 values were derived from the fitted curve.
# [1] = tested on: S. aureus wild type and fph transposon mutants; assay: Bacterial growth inhibition assay, S. aureus; format: cell-based, Staphylococcus aureus; conditions: 1–100 μM
# Procedure: as §1
# For bacterial growth inhibition assay, wild-type S. aureus and transposon mutants (fphB::Tn, fphE::Tn and fphH::Tn) were grown with compounds at final concentrations ranging from 1–100 μM and compared to growth in media with an equivalent percentage of DMSO. Each condition was plated as technical duplicates. The plate was incubated at 37°C with shaking every 15 minutes followed by measurement of OD600 for 14 hr. All growth curves were repeated at least twice and analyzed in GraphPad Prism 10.0 software. For bacterial resistance analysis, overnight culture of S. aureus Newman was diluted to an OD600 of 0.01 in MHB. This was followed by pretreatment with 20 μM N34 or equivalent DMSO volume as control. The pretreatment was allowed to proceed for 3 hr before initiating treatment with different concentrations of the test antibiotics (Table S5). The cultures were incubated overnight at 37°C, 5% CO2 before their optical density was read. The EC50 of the antibiotics against the bacteria in the presence or absence of N34 were determined by fitting the normalized data into a four-parameter logistic model in GraphPad Prism 10.0 software.
# rFphH = target: T2, rFphH (Staphylococcus aureus, UniProt A0A0H2XJL0); assay: FP-Cy5 active site labeling of recombinant protein, rFphH; format: binding; conditions: recombinant protein
# T2 construct: otherwise full-length FphE (Uniprot ID Q2FDS6) and FphH (A0A0H2XJL0) proteins; His6 (3C-cleavable, pETNKI-his-3C-LIC vector) (N); made in house; E. coli is inferred from the pET28a-type vector, IPTG induction and LB/kanamycin
# T2 sequence (A0A0H2XJL0 1-246): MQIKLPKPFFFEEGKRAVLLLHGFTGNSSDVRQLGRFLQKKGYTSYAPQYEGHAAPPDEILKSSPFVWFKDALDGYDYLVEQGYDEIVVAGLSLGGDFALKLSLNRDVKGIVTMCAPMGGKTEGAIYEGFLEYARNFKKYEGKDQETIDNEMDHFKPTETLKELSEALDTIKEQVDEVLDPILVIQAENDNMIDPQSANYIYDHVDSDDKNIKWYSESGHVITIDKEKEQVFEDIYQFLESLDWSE
# Procedure: For activity-based protein labeling experiments, 500 nM of rFphB, rFphE and rFphH in 1X PBS and 0.1% Triton–X were preincubated with different concentrations of inhibitors or DMSO for 2hr at room temperature, followed by adding 300 nM of fluorophosphonate (FP) alkyne and incubated for 30 min at room temperature. Next, 20 μL of the reaction volume were mixed with 2.16 μL of freshly prepared click mix (0.5 μL of 50 mM CuSO4 in H2O, 1.16 μL of 100 mM BTTAA in DMSO, and 0.5 μL of N3-Cy5 in DMSO) and 1.16 μL of 300 mM sodium ascorbate solution in H2O. Samples were incubated at 37°C for 30 min, boiled in SDS loading buffer and analyzed by SDS–PAGE. Cy5 fluorescence was imaged using the Cy5 channel on a Typhoon 9410 Imager (Amersham Biosciences).
# [2] = Cytotoxicity assay (CellTiter-Blue); format: cell-based; conditions: human; HEK293 cells, 48hr of incubation
# [3] = tested on: S. aureus biofilm formation; assay: Crystal violet biofilm inhibition assay; format: cell-based, Staphylococcus aureus; conditions: fphH or fphE transposon mutant
# Procedure: Overnight cultures of S. aureus (wild-type, transposon mutants and complemented) strains (Table S3) grown in TSB, were subcultured on fresh TSB and grown to OD600 of 0.5. Biofilms were cultured in 96 well plates by transferring 1 μL of the culture to 200 μL of TSB plus 1% glucose with or without the inhibitors and incubated for 16 hours at 37°C without agitation. The inhibitor concentrations ranged from 1, 5, 10, 50 and 100 μM final concentration. Equal volume of DMSO was added as control. The wells were washed to remove the planktonic cells and the plates air-dried before staining with 200μL of 0.1% w/v crystal violet for 10 minutes at room temperature. The wells were washed to remove excess dye and blotted to dry. Each well was filled with 200μL of DMSO for 10 minutes at room temperature to dissolve the dye. The absorbance was measured at 590 nm using Spark multimode microplate reader (TECAN). The data represents n = 3 independent experiments and are expressed as a percentage of the uninhibited wild-type bacteria. All the data are normalized such that 100% represent untreated WT S. aureus. P values were determined using ordinary one-way ANOVA multiple comparisons GraphPad Prism 10.0 software. *P < 0.05, **P < 0.01, ***P < 0.001 and ****P < 0.0001.
smiles,measurement,setting,value
"OB(O)c1csc2ccccc12 [Z27, Benzo[b]thiophen-3-ylboronic acid]",growth defect (in words),Pseudomonas aeruginosa,no significant growth defect
same,growth defect (in words),Escherichia coli,no significant growth defect
same,IC50,recombinant FphE (rFphE),50 nM
same,effect on S. aureus growth (in words),[1],reduced growth for only the fphE mutant
same,concentration inhibiting FP-Cy5 labeling of rFphH,rFphH,> 50 µM
same,CC50 at 48 h,[2],> 200000 nM
same,effect on biofilm formation in transposon mutants (in words),[3],further reduced by the inhibitor Z27 only at the highest concentrations used (50 and 100 μM)
